Data published in patent publication US9623046B2, “Amphiphilic Janus-dendrimers” (The Trustees Of The University Of Pennsylvania, priority 2009, dated 2017).
Where two headings read alike, the source gives them in different places.

Columns and labels:
Melittin = Melittin (Apis mellifera, UniProt P01501); settings: Melittin 63 μL, 300 μM into 2 mL suspension
[1] = Miscibility of Janus-dendrimers with phospholipids (microscopy, DSC); format: physicochemical; settings: 1:1 ratio, film hydration
[2] = Dynamic light scattering of dendrosomes formed by ethanol injection (size, polydispersity); format: physicochemical
Method: Dynamic light scattering measurements (DLS) were performed with a Malvern Instruments particle sizer (Zetasizer® Nano S, Malvern Instruments, UK).
Small unilamellar dendrosomes of <200 nm size were obtained by fast injection of 100 μL of ethanol (THF, acetone, dioxane, acetonitrile or DMSO for the solvent dependence studies) solution containing 10 mg of Janus-dendrimer dissolved in 1 mL of solvent into various volumes of milippore water (0.5 mL-5 mL) giving final Janus-dendrimer concentrations of 0.1-2 mg/mL. Dendrosomes obtained via injection method were used without further manipulation to study the influence of concentration, solvent, temperature and time on size and polydispersity by dynamic light scattering (DLS) as well as for the characterization of dendrosome morphologies via cryogenic transmission electron microscopy (cryo-TEM).
Dendrosomes were formed according to the general method discussed herein at final concentrations from 0.5-20 mg/mL. DLS measurements were carried out immediately following injection and repeated after 60 min. […] Monomodal distributions were obtained from 0.5-7 mg/mL and bimodal distributions from 10-20 mg/mL. […] At concentrations over […], multimodal size distributions and increased flocculation in time was observed.
Dendrosomes were formed according to the general method discussed herein at final concentrations of 0.5 mg/mL aqueous solution.

[3] = Micropipette aspiration of giant unilamellar dendrosomes (mechanical properties); format: physicochemical
Method: The elastic properties of dendrosome membranes were determined by micropipette aspiration following an analogous procedure described previously (Needham, Biophys. J. 58, 997-1009 (1990)). Giant unilamelar (˜[…] diameter) dendrosomes were prepared by Teflon film hydration as described herein and dispersed into iso-osmotic ultrapure water. Glass micropipettes with inner diameter from ˜3 μm to ˜10 μm were filled with iso-osmotic ultrapure water and connected to an aspiration station mounted on the side of a Zeiss inverted microscope, equipped with a manometer. The pipettes were used to manipulate the dendrosomes and to apply well-defined stress to the wall by inducing suction tension on their membranes.
The micropipette suction pressure is controlled in the range of microatmospheres and tenths of atmospheres (0.1 N/m^2 to 10000 N/m^2). The tension results in deformation and consequently provides direct measurements of the elastic moduli, which characterizes the membrane area expansion and bending, together with other parameter that characterize the tensile failure of the vesicle membrane according to the equations (1) and (2): Ka=Δτ/Δα (1) Es=Ka(αc)^2/2 (2) were Ka=elastic area expansion modulus; Δτ=fractional tension; τs=membrane tension at failure; Δα=fractional increase in membrane area; αc=critical areal strain-fractional increase in membrane area at failure, and Es=energy stored at failure Results are presented in the Table below.

[4] = polymersomes and lipids (liposomes), comparison; cited from earlier work
[5] = test system: human umbilical vein endothelial cells (HUVECs); assay: Cell viability, CellTiter-Blue assay; format: cell-based; settings: CellTiter-Blue, 1, 2 and 4 h, compared to control
Method: Since endothelial cells are the first point of contact for intravenous drug formulations, the toxicity of the dendrosomes was evaluated in vitro on human umbilical vein endothelial cells (HUVECs). HUVECs were cultured in EGM Endothelial Growth Media (LONZA) supplemented with bovine brain extract (BBE) with heparin, h-EGF, hydrocortisone, gentamicin, amphotericin B (GA-1000), and fetal bovine serum (FBS). Cells were maintained in plastic culture flasks at 37° C. in a humidified atmosphere containing 5% CO2 and were further subcultured when the flasks were 70% to 90% confluent. The passage number of the cells for the HUVECs in vitro studies was 5-8. The investigation of toxicity of dendrosomes and viability of the cells was assessed fluorometrically by determining the number of viable cells present in multiwell plates. Cell viability was determined using the indicator dye resazurin, which is reduced by viable cells to a highly fluorescent form resorufin according to Scheme S17. […] The CellTiter-Blue Cell Viability Assay was obtained from Promega.
HUVECs were plated at a density of 3,200 cells per well (10,000 cells/cm^2) in 96 well tissue culture plates and allowed to adhere overnight. Culture media was removed from the wells and replaced with 250 μL of either: 100% media, 94% media/6% PBS buffer, 87.5% media/12.5% PBS buffer, 75% media/25% PBS buffer, 100% PBS buffer, and various concentrations of sterile dendrosomes and polymersomes ranging from 0.25 mg to 0.0625 mg in the three concentrations of media/PBS, and maintained at 37° C. in a humidified atmosphere of 5% CO2. The dendrosomes and polymersomes were prepared by film the hydration method as described in section S5.1 and extruded 25 times through 100 nm polycarbonate membrane. Dendrosomes and polymersomes were sterilized by exposing them for […] min to UV irradiation. […] The fluorescence intensity at 590 nm emanating from the wells when excited at 560 nm was then determined using a TECAN Inifinite2000 plate reader.

[6] = concentrations of 0.5-2 mg/mL, unimodal distributions

Chain of Melittin (P01501 44-69 limits assumed): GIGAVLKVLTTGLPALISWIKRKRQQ

Compound | Critical αc (critical areal strain) [3] | Energy stored at failure [3] | Ka (elastic area expansion modulus) [3] | Lysis Tension τs [3] | cell viability / toxicity [5] | further results
(3,5)12G1-PE-BMPA-G2-(OH)8 [(3,5)12G1-PE-BMPA-(OH)8] | 0.03 | 0.69 mJ/m^2 | 976 mN/m | 15.5 mN/m | – | CD signal after Melittin addition (Melittin): showed CD signal; miscibility with SOPC [1]: confirmed by DSC; Z-average size ([2]; concentration 0.5 mg/mL): 94 nm; polydispersity ([2]; concentration 0.5 mg/mL): 0.04; Z-average size ([2]; concentration 10 mg/mL): 330 nm; polydispersity ([2]; concentration 10 mg/mL): 0.17; PDI ([2]; concentration of 20 mg/mL): 0.4; sizes ([2]; concentration of 20 mg/mL): 1004 nm; sizes ([2]; concentrations of 0.5-10 mg/mL): 94-330 nm
DAPC | – | – | – | – | – | Critical αc (critical areal strain) [4]: 0.04; Ka (elastic area expansion modulus) [4]: 57 mN/m; Lysis Tension τs [4]: 2.3 mN/m
(3,4)12G1-PE-BMPA-G2-(OH)8 [(3,4)12G1-PE-BMPA-(OH)8] | 0.04 | 0.42 mJ/m^2 | 961 mN/m | 20.4 mN/m | – | PDI [2, 6]: 0.07-0.2; sizes [2, 6]: 111-175 nm
CCCCCCCC/C=C\CCCCCCCC(=O)O[C@H](COC(=O)CCCCCCCCCCCCCCCCC)COP(=O)([O-])OCC[N+](C)(C)C [SOPC, 1-Stearoyl-2-Oleoyl-Sn-Glycero-3-Phosphatidylcholine, reference compound] | – | – | – | – | – | CD signal after Melittin addition (Melittin): showed CD signal
CCCCCCCCCCCCCC(=O)OC[C@H](COP(=O)([O-])OCC[N+](C)(C)C)OC(=O)CCCCCCCCCCCCC [DMPC] | – | – | – | – | – | Ka (elastic area expansion modulus) [4]: 234 mN/m
(3,5)12G1-PE-(3,4,5)-3EO-G1-(OCH3)6 [Dendrosome 2] | – | – | – | – | excellent biocompatibility | –
(3,4,5)12G1-PE-BMPA-G2-(OH)8 [(3,4,5)12G1-PE-BMPA-(OH)8] | 0.06 | 0.11 mJ/m^2 | 42.44 mN/m | 0.88 mN/m | – | –
(3,4)12G1-PE-(3,4,5)-3EO-G1-(OCH3)6 [Dendrosome 1] | – | – | – | – | excellent biocompatibility | –
(3,5)12G1-PE-(3,4)-3EO-G1-(OH)4 | 0.06 | 0.73 mJ/m^2 | 582.5 mN/m | 15.11 mN/m | – | –
(3,4,5)12G1-PE-(3,4,5)-3EO-G1-(OH)6 | 0.04 | 0.27 mJ/m^2 | 267.5 mN/m | 12.7 mN/m | excellent biocompatibility | –
